According to PubChem BioAssay AID256 (DTP/NCI, 2004):
Several values for one entry are separate records, joined by “and”; a condition that tells them apart may be missing. Identical values can stand only once. Inconclusive results and toxic doses are left out. How the source made its calls: active means survival T/C of 150% or more; inactive means T/C below 125% in these data. Residues, ends and D or L forms follow the SMILES beside them. *: point of attachment. Cbz = O=C(OCc1ccccc1)*; OtBu = CC(C)(C)O*

Test system: CD2F1 mice, L1210 leukemia ip, survival T/C
Assay: NCI In Vivo Anticancer Drug Screen. Data for tumor model L1210 Leukemia (intraperitoneal) in CD2F1 (CDF1) mice
Conditions: higher = longer survival
In short: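 Mice carrying a transplanted tumor received test compound or vehicle alone. The value is the measurement in the treated group divided by that in the vehicle-treated control group.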

[1] = endpoint: mean survival time, dose: 100.0 mg/kg/injection, schedule: Q04DX002 (ip), vehicle: saline with Tween-80
[2] = endpoint: mean survival time, dose: 200.0 mg/kg/injection, schedule: Q04DX002 (ip), vehicle: saline with Tween-80
[3] = endpoint: mean survival time, dose: 200.0 mg/kg/injection, schedule: Q04DX003 (ip), vehicle: saline with Tween-80
[4] = endpoint: mean survival time, dose: 400.0 mg/kg/injection, schedule: Q04DX003 (ip), vehicle: saline with Tween-80
[5] = endpoint: mean survival time, dose: 100.0 mg/kg/injection, schedule: Q01DX009 (ip), vehicle: saline with Tween-80
[6] = endpoint: mean survival time, dose: 200.0 mg/kg/injection, schedule: Q01DX009 (ip), vehicle: saline with Tween-80
[7] = endpoint: mean survival time, dose: 12.5 mg/kg/injection, schedule: Q04DX003 (ip), vehicle: saline with Tween-80
[8] = endpoint: mean survival time, dose: 400.0 mg/kg/injection, schedule: Q04DX002 (ip), vehicle: saline with Tween-80

Measured: T/C

O=C1OC(=O)C2C3C=CC(O3)C12 (centres undefined)
inactive: endpoint: mean survival time, dose: 10.0 mg/kg/injection, schedule: Q01DX009 (ip), vehicle: saline with Tween-80 100 % of control | endpoint: mean survival time, dose: 12.5 mg/kg/injection, schedule: Q01DX009 (ip), vehicle: saline 105 % of control | endpoint: mean survival time, dose: 12.5 mg/kg/injection, schedule: Q04DX003 (ip), vehicle: saline 95 % of control | endpoint: mean survival time, dose: 20.0 mg/kg/injection, schedule: Q01DX009 (ip), vehicle: saline with Tween-80 98 % of control | endpoint: mean survival time, dose: 25.0 mg/kg/injection, schedule: Q01DX009 (ip), vehicle: saline 94 % of control | endpoint: mean survival time, dose: 25.0 mg/kg/injection, schedule: Q04DX002 (ip), vehicle: saline 104 % of control | endpoint: mean survival time, dose: 25.0 mg/kg/injection, schedule: Q04DX003 (ip), vehicle: saline 98 % of control | endpoint: mean survival time, dose: 50.0 mg/kg/injection, schedule: Q01DX009 (ip), vehicle: saline 102 % of control | endpoint: mean survival time, dose: 50.0 mg/kg/injection, schedule: Q04DX002 (ip), vehicle: saline 104 % of control | endpoint: mean survival time, dose: 50.0 mg/kg/injection, schedule: Q04DX003 (ip), vehicle: saline 95 % of control | endpoint: mean survival time, dose: 100.0 mg/kg/injection, schedule: Q04DX002 (ip), vehicle: saline 97 % of control and 98 % of control

BrC[P+](CBr)(CBr)CBr
inactive: endpoint: median survival time, dose: 25.0 mg/kg/injection, schedule: Q01DX009 (ip), vehicle: saline with Tween-80 98 % of control | endpoint: median survival time, dose: 50.0 mg/kg/injection, schedule: Q01DX009 (ip), vehicle: saline with Tween-80 102 % of control | endpoint: median survival time, dose: 100.0 mg/kg/injection, schedule: Q01DX009 (ip), vehicle: saline with Tween-80 102 % of control | endpoint: median survival time, dose: 200.0 mg/kg/injection, schedule: Q01DX009 (ip), vehicle: saline with Tween-80 109 % of control | endpoint: median survival time, dose: 400.0 mg/kg/injection, schedule: Q01DX009 (ip), vehicle: saline with Tween-80 96 % of control

CCC(=O)OC(=N)C(=N)OC(=O)CC
inactive: endpoint: mean survival time, dose: 25.0 mg/kg/injection, schedule: Q04DX002 (ip), vehicle: saline with Tween-80 98 % of control | endpoint: mean survival time, dose: 50.0 mg/kg/injection, schedule: Q04DX002 (ip), vehicle: saline with Tween-80 98 % of control | [1] 98 % of control | [2] 95 % of control

CCC(C)C(NC(=O)OCc1ccccc1)C(=O)NC(C(=O)NC(CCC(=O)OC(C)(C)C)C(=O)OC)C(C)C (stereo not drawn) (Cbz-Ile-Val-Glu(OtBu)-OMe; configuration not given here)
inactive: endpoint: mean survival time, dose: 100.0 mg/kg/injection, schedule: Q04DX003 (ip), vehicle: saline sonified 88 % of control | endpoint: mean survival time, dose: 400.0 mg/kg/injection, schedule: Q04DX003 (ip), vehicle: saline sonified 92 % of control

NC(=O)Cc1c(Cl)n(-c2ccccc2)c2ccccc12
inactive: endpoint: mean survival time, dose: 50.0 mg/kg/injection, schedule: Q04DX003 (ip), vehicle: Klucel (hydroxypropylcellulose) (HPC) 95 % of control | endpoint: mean survival time, dose: 100.0 mg/kg/injection, schedule: Q04DX003 (ip), vehicle: Klucel (hydroxypropylcellulose) (HPC) 102 % of control | endpoint: mean survival time, dose: 200.0 mg/kg/injection, schedule: Q04DX003 (ip), vehicle: Klucel (hydroxypropylcellulose) (HPC) 95 % of control

O=Cc1c[nH]c2ccc(Br)cc12
inactive: endpoint: mean survival time, dose: 100.0 mg/kg/injection, schedule: Q01DX009 (ip), vehicle: saline 105 % of control | endpoint: mean survival time, dose: 200.0 mg/kg/injection, schedule: Q01DX009 (ip), vehicle: saline 113 % of control | endpoint: mean survival time, dose: 400.0 mg/kg/injection, schedule: Q01DX009 (ip), vehicle: saline 100 % of control

CCCc1ccc(NS(=O)(=O)c2ccc(C)cc2)cc1
inactive: endpoint: mean survival time, dose: 100.0 mg/kg/injection, schedule: Q04DX002 (ip), vehicle: Klucel (hydroxypropylcellulose) (HPC) 98 % of control | endpoint: mean survival time, dose: 200.0 mg/kg/injection, schedule: Q04DX002 (ip), vehicle: Klucel (hydroxypropylcellulose) (HPC) 103 % of control | endpoint: mean survival time, dose: 400.0 mg/kg/injection, schedule: Q04DX002 (ip), vehicle: Klucel (hydroxypropylcellulose) (HPC) 92 % of control

C#CCOC(=O)Nc1cccc(OC(=O)NC)c1
inactive: endpoint: mean survival time, dose: 100.0 mg/kg/injection, schedule: Q04DX003 (ip), vehicle: saline with Tween-80 99 % of control | [3] 101 % of control | [4] 97 % of control

NS(=O)(=O)c1ccc(N=Cc2ccccc2O)cc1
inactive: [5] 95 % of control | [6] 89 % of control | endpoint: mean survival time, dose: 400.0 mg/kg/injection, schedule: Q01DX009 (ip), vehicle: saline with Tween-80 86 % of control

COc1cc2c[n+](C)c3c4cc5c(cc4ccc3c2cc1OC)OCO5 (tested in a mixture with another compound)
inactive: endpoint: mean survival time, dose: 3.13 mg/kg/injection, schedule: Q01DX009 (ip), vehicle: other 118 % of control and 112 % of control | endpoint: mean survival time, dose: 5.0 mg/kg/injection, schedule: Q01DX009 (ip), vehicle: saline 119 % of control | endpoint: mean survival time, dose: 6.25 mg/kg/injection, schedule: Q01DX009 (ip), vehicle: Klucel (hydroxypropylcellulose) (HPC) 112 % of control | endpoint: mean survival time, dose: 6.25 mg/kg/injection, schedule: Q01DX009 (ip), vehicle: other 117 % of control and 112 % of control | endpoint: mean survival time, dose: 12.5 mg/kg/injection, schedule: Q01DX009 (ip), vehicle: Klucel (hydroxypropylcellulose) (HPC) 124 % of control | endpoint: mean survival time, dose: 12.5 mg/kg/injection, schedule: Q01DX009 (ip), vehicle: other 113 % of control and 118 % of control | endpoint: mean survival time, dose: 25.0 mg/kg/injection, schedule: Q01DX009 (ip), vehicle: other 113 % of control and 116 % of control | endpoint: mean survival time, dose: 50.0 mg/kg/injection, schedule: Q01DX009 (ip), vehicle: Klucel (hydroxypropylcellulose) (HPC) 112 % of control

CC(C)C(=O)Nc1ccc(Cl)cc1
inactive: [5] 100 % of control | [6] 97 % of control

CC1=CCC2C(=O)NC(=O)C2C1 (centres undefined)
inactive: endpoint: mean survival time, dose: 50.0 mg/kg/injection, schedule: Q01DX009 (ip), vehicle: saline with Tween-80 96 % of control | [5] 104 % of control | [6] 104 % of control

COc1cc(C=Nc2cc(Cl)ccc2-n2ccnc2C)ccc1N(CCCl)CCCl
inactive: [7] 117 % of control | endpoint: mean survival time, dose: 25.0 mg/kg/injection, schedule: Q04DX003 (ip), vehicle: saline with Tween-80 113 % of control | endpoint: mean survival time, dose: 50.0 mg/kg/injection, schedule: Q04DX003 (ip), vehicle: saline with Tween-80 118 % of control | [3] 115 % of control | [4] 89 % of control

O=C1NCCCN1O
inactive: endpoint: mean survival time, dose: 100.0 mg/kg/injection, schedule: Q04DX003 (ip), vehicle: saline 104 % of control | endpoint: mean survival time, dose: 200.0 mg/kg/injection, schedule: Q04DX003 (ip), vehicle: saline 100 % of control | endpoint: mean survival time, dose: 400.0 mg/kg/injection, schedule: Q04DX003 (ip), vehicle: saline 112 % of control

C=CCC1OC1CCCC1CO1 (centres undefined)
inactive: endpoint: mean survival time, dose: 100.0 mg/kg/injection, schedule: Q01DX001 (ip), vehicle: saline sonified 94 % of control | [1] 97 % of control | endpoint: mean survival time, dose: 200.0 mg/kg/injection, schedule: Q01DX001 (ip), vehicle: saline sonified 90 % of control | [2] 101 % of control | endpoint: mean survival time, dose: 400.0 mg/kg/injection, schedule: Q01DX001 (ip), vehicle: saline sonified 97 % of control | [8] 97 % of control

N#CC[CH2][Sn]([I])([c]1ccccc1)[c]1ccccc1
inactive: endpoint: mean survival time, dose: 6.25 mg/kg/injection, schedule: Q04DX003 (ip), vehicle: saline with Tween-80 97 % of control | [7] 97 % of control

CC(C)=CC(O)CC(O)(C(F)(F)F)C(F)(F)F (centres undefined)
inactive: endpoint: mean survival time, dose: 100.0 mg/kg/injection, schedule: Q01DX001 (ip), vehicle: Klucel (hydroxypropylcellulose) (HPC) 94 % of control | [1] 94 % of control | endpoint: mean survival time, dose: 200.0 mg/kg/injection, schedule: Q01DX001 (ip), vehicle: Klucel (hydroxypropylcellulose) (HPC) 97 % of control | [2] 94 % of control | endpoint: mean survival time, dose: 400.0 mg/kg/injection, schedule: Q01DX001 (ip), vehicle: Klucel (hydroxypropylcellulose) (HPC) 100 % of control | [8] 90 % of control

c1ccc2nc3c(cc2c1)CCC3
inactive: endpoint: mean survival time, dose: 100.0 mg/kg/injection, schedule: Q04DX003 (ip), vehicle: saline + alcohol 95 % of control | endpoint: mean survival time, dose: 200.0 mg/kg/injection, schedule: Q04DX003 (ip), vehicle: saline + alcohol 95 % of control
